Counter-ions that a name gives are not always drawn.
Test system: T1, primary mouse cortical neurons
T1 construct: primary cortical neurons, DIV 10
Assay: cells
Set-up: Protection from NMDA-induced (30 uM, 10 min) neuronal death; Hoechst nuclear morphology by automated microscopy
Details: Cortical neurone, 20 h, read-out: % inhibition, inhibition of NMDA-induced cell death (protection score), 30 min pre-treatment
In short: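 On DIV 10, primary mouse cortical neurons were given compound at 10 μM for 30 min at 37 °C, then 30 μM NMDA for 10 min, washed, and kept 20 h with compound. Dead cells were scored by nuclear morphology, and % protection was derived from survival relative to vehicle + NMDA and untreated controls.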

| SMILES | inhibition at 10 µM [%] |
| --- | --- |
| c1ccc([C@H]2CN3CCSC3=N2)cc1 [Levamisole Hydrochloride (Ergamisol)] | 19.8 |
| N[C@@H](Cc1ccc(O)c(O)c1)C(=O)O [Levodopa (Sinemet)] | 0.209 |
| C[C@H]1COc2c(N3CCN(C)CC3)c(F)cc3c(=O)c(C(=O)O)cn1c23 [Levofloxacin (Levaquin)] | -4.92 |
| C#C[C@]1(O)CC[C@H]2[C@@H]3CCC4=CC(=O)CC[C@@H]4[C@H]3CC[C@@]21CC [Levonorgestrel (Levonelle)] | -1.05 |
| CCN(CC)CC(=O)Nc1c(C)cccc1C [Lidocaine (Alphacaine)] | -8.6 |
| CC1(C)O[C@H]2CC(=O)OC[C@]23[C@H]2CC[C@@]4(C)[C@H](c5ccoc5)OC(=O)[C@H]5O[C@]54[C@]2(C)C(=O)C[C@@H]13 [Limonin] | -3.17 |
| CCC[C@@H]1C[C@@H](C(=O)N[C@@H]([C@H]2O[C@H](SC)[C@H](O)[C@@H](O)[C@H]2O)[C@@H](C)O)N(C)C1 [Lincomycin hydrochloride (Lincocin)] | -7.87 |
| CC(=O)NC[C@H]1CN(c2ccc(N3CCOCC3)c(F)c2)C(=O)O1 [Linezolid (Zyvox)] | 37 |
| CCn1cc(C(=O)O)c(=O)c2cc(F)c(N3CCNC(C)C3)c(F)c21 (stereo not drawn) [Lomefloxacin hydrochloride (Maxaquin)] | 3.08 |
| CN(C)C(=O)C(CCN1CCC(O)(c2ccc(Cl)cc2)CC1)(c1ccccc1)c1ccccc1 [Loperamide hydrochloride] | -2.48 |
| Cc1cccc(C)c1OCC(=O)N[C@@H](Cc1ccccc1)[C@@H](O)C[C@H](Cc1ccccc1)NC(=O)[C@H](C(C)C)N1CCCNC1=O [Lopinavir (ABT-378)] | 1.09 |
| CCOC(=O)N1CCC(=C2c3ccc(Cl)cc3CCc3cccnc32)CC1 [Loratadine] | -11.1 |
| CCOC(=O)O[C@]1(C(=O)OCCl)CC[C@H]2[C@@H]3CCC4=CC(=O)C=C[C@]4(C)[C@H]3[C@@H](O)C[C@@]21C [Loteprednol Etabonate] | 30.7 |
| O=c1cc(-c2ccc(O)c(O)c2)oc2cc(O)cc(O)c12 [Luteolin] | -2.28 |
| C=CCc1ccc(O)c(-c2cc(CC=C)ccc2O)c1 [Magnolol] | -3.4 |
| CNCCC[C@]12CC[C@H](c3ccccc31)c1ccccc12 [Maprotiline hydrochloride] | 0.000867 |
| Cc1nnc(C(C)C)n1[C@@H]1C[C@H]2CC[C@@H](C1)N2CC[C@H](NC(=O)C1CCC(F)(F)CC1)c1ccccc1 [Maraviroc] | 2.4 |
| Cc1ccc(NC(=O)c2ccc(CN3CCN(C)CC3)cc2)cc1Nc1nc(-c2cccnc2)cs1 [Masitinib (AB1010)] | -5.13 |
| O=C1CCC[C@@H]2[C@H]3CCCN4CCC[C@@H](CN12)[C@@H]34 [Matrine ((+)-Matrine)] | -4.08 |
| CC(=O)O[C@]1(C(C)=O)CC[C@H]2[C@@H]3C=C(C)C4=CC(=O)CC[C@]4(C)[C@H]3CC[C@@]21C [Megestrol Acetate] | -7.04 |
| S=c1[nH]cnc2nc[nH]c12 [Mercaptopurine] | -8.52 |
| Nc1ccc(O)c(C(=O)O)c1 [Mesalamine (Lialda)] | 21.8 |

| SMILES | inhibition at 10 µM [%] |
| --- | --- |
| O=S(=O)(O)CCS [Mesna (Uromitexan, Mesnex)] | -0.811 |
| C#C[C@]1(O)CC[C@H]2[C@@H]3CCc4cc(OC)ccc4[C@H]3CC[C@@]21C [Mestranol] | 11.8 |
| CN(C)C(=N)NC(=N)N [Metformin hydrochloride (Glucophage)] | 10.2 |
| C=C1c2cccc(O)c2C(O)=C2C(=O)[C@]3(O)C(O)=C(C(N)=O)C(=O)[C@@H](N(C)C)[C@@H]3[C@@H](O)[C@H]12 [Methacycline hydrochloride (Physiomycine)] | 13.5 |
| Cn1nnc2c(C(N)=O)ncn2c1=O [Methazolastone] | 14.3 |
| Cn1ccnc1S [Methimazole (Tapazole, Northyx)] | 15.5 |
| COc1ccccc1OCC(O)COC(N)=O (stereo not drawn) [Methocarbamol (Robaxin)] | -0.235 |
| COc1c2occc2cc2ccc(=O)oc12 [Methoxsalen (Oxsoralen)] | -4.76 |
| COc1ccc([C@@H]2CC(=O)c3c(O)cc(O[C@@H]4O[C@H](CO[C@@H]5O[C@@H](C)[C@H](O)[C@@H](O)[C@H]5O)[C@@H](O)[C@H](O)[C@H]4O)cc3O2)cc1OC [Methyl-Hesperidin] | -2.33 |
| C[C@H]1C[C@@H]2[C@H]([C@@H](O)C[C@@]3(C)[C@H]2CC[C@]3(O)C(=O)CO)[C@@]2(C)C=CC(=O)C=C12 [Methylprednisolone] | 7.52 |
| Cc1ccccc1N1C(=O)c2cc(S(N)(=O)=O)c(Cl)cc2NC1C (stereo not drawn) [Metolazone (Zaroxolyn)] | 27.9 |
| CN1CCN2c3ccccc3Cc3ccccc3C2C1 (stereo not drawn) [Mianserin hydrochloride] | -2.1 |
| Cc1[nH]c(=O)c(C#N)cc1-c1ccncc1 [Milrinone (Primacor)] | -10.4 |
| N=c1nc(N2CCCCC2)cc(N)n1O [Minoxidil] | -1.14 |
| CC[C@@]1([C@@H]2O[C@@H]([C@H]3O[C@@](O)(CO)[C@H](C)C[C@@H]3C)C[C@@H]2C)CC[C@H]([C@]2(C)CC[C@]3(C[C@H](O)[C@@H](C)[C@@H]([C@@H](C)[C@@H](OC)[C@H](C)C(=O)O)O3)O2)O1 [Monensin sodium salt (Coban)] | 3.22 |
| Oc1ccc(OCc2ccccc2)cc1 [Monobenzone (Benoquin)] | 49.3 |
| O=c1c(O)c(-c2ccc(O)cc2O)oc2cc(O)cc(O)c12 [Morin hydrate (Aurantica)] | -2.71 |
| N=C(N)NC(=N)N1CCOCC1 [Moroxydine] | 0.926 |
| COc1c(N2C[C@@H]3CCCN[C@@H]3C2)c(F)cc2c(=O)c(C(=O)O)cn(C3CC3)c12 [Moxifloxacin hydrochloride] | 0.0291 |
| COc1c(C)c2c(c(O)c1C/C=C(\C)CCC(=O)OCCN1CCOCC1)C(=O)OC2 [Mycophenolate mofetil (CellCept)] | 4.41 |
| COc1c(C)c2c(c(O)c1C/C=C(\C)CCC(=O)O)C(=O)OC2 [Mycophenolic (Mycophenolate)] | -10.2 |
| O=c1c(O)c(-c2cc(O)c(O)c(O)c2)oc2cc(O)cc(O)c12 [Myricetin (Cannabiscetin)] | -1.08 |

| SMILES | inhibition at 10 µM [%] |
| --- | --- |
| C[C@@H]1O[C@@H](Oc2c(-c3cc(O)c(O)c(O)c3)oc3cc(O)cc(O)c3c2=O)[C@H](O)[C@H](O)[C@H]1O [Myricitrin (Myricitrine)] | -2.22 |
| COc1ccccc1N1CCN(CC(O)COc2cccc3ccccc23)CC1 (stereo not drawn) [Naftopidil (Flivas)] | -8.14 |
| CCn1cc(C(=O)O)c(=O)c2ccc(C)nc21 [Nalidixic acid (NegGram)] | -2.4 |
| c1ccc2c(CC3=NCCN3)cccc2c1 [Naphazoline hydrochloride (Naphcon)] | -0.842 |
| O=C1C[C@@H](c2ccc(O)cc2)Oc2cc(O)cc(O)c21 [Naringenin] | -3.44 |
| C[C@@H]1O[C@@H](O[C@H]2[C@H](Oc3cc(O)c4c(c3)O[C@H](c3ccc(O)cc3)CC4=O)O[C@H](CO)[C@@H](O)[C@@H]2O)[C@H](O)[C@H](O)[C@H]1O [Naringin (Naringoside)] | -0.553 |
| C[C@@H]1O[C@@H](O[C@H]2[C@H](Oc3cc(O)c(C(=O)CCc4ccc(O)cc4)c(O)c3)O[C@H](CO)[C@@H](O)[C@@H]2O)[C@H](O)[C@H](O)[C@H]1O [Naringin Dihydrochalcone (Naringin DC)] | 7.97 |
| C[C@@H]1C/C=C/C=C/C=C/C=C/[C@H](O[C@@H]2O[C@H](C)[C@@H](O)[C@H](N)[C@@H]2O)C[C@@H]2O[C@](O)(C[C@@H](O)C[C@H]3O[C@@H]3/C=C/C(=O)O1)C[C@H](O)[C@H]2C(=O)O [Natamycin (Pimaricin)] | -0.639 |
| CC(C)[C@H]1CC[C@H](C(=O)N[C@H](Cc2ccccc2)C(=O)O)CC1 [Nateglinide (Starlix)] | 42.4 |
| O[C@@H](CNC[C@H](O)[C@H]1CCc2cc(F)ccc2O1)[C@@H]1CCc2cc(F)ccc2O1 [Nebivolol (Bystolic)] | -2.64 |
| Cc1cccc(C)c1NC(=O)CN1CCCC1=O [Nefiracetam (Translon)] | 7.17 |
| COc1nc(N)nc2c1ncn2[C@@H]1O[C@H](CO)[C@@H](O)[C@@H]1O [Nelarabine (Arranon)] | -9.06 |
| COc1ccc(CCC(=O)c2c(O)cc(O[C@@H]3O[C@H](CO)[C@@H](O)[C@H](O)[C@H]3O[C@@H]3O[C@@H](C)[C@H](O)[C@@H](O)[C@H]3O)cc2O)cc1O [Neohesperidin dihydrochalcone (Nhdc)] | -3.39 |
| COc1ccc([C@@H]2CC(=O)c3c(O)cc(O[C@@H]4O[C@H](CO)[C@@H](O)[C@H](O)[C@H]4O[C@@H]4O[C@@H](C)[C@H](O)[C@@H](O)[C@H]4O)cc3O2)cc1O [Neohesperidin] | 4.46 |
| NC[C@@H]1O[C@H](O[C@H]2[C@@H](O)[C@H](O[C@@H]3[C@@H](O)[C@H](N)C[C@H](N)[C@H]3O[C@H]3O[C@H](CN)[C@@H](O)[C@H](O)[C@H]3N)O[C@@H]2CO)[C@H](N)[C@@H](O)[C@@H]1O [Neomycin sulfate] | -1.47 |
| CN(C)C(=O)Oc1cccc([N+](C)(C)C)c1 [Neostigmine bromide (Prostigmin)] | -0.504 |
| NC(=O)Cc1cccc(C(=O)c2ccccc2)c1N [Nepafenac] | -12.2 |
| Cc1ccnc2c1NC(=O)c1cccnc1N2C1CC1 [Nevirapine (Viramune)] | 9.64 |
| O=C(O)c1cccnc1 [Niacin (Nicotinic acid)] | -0.509 |
| O=C(NCCO[N+](=O)[O-])c1cccnc1 [Nicorandil (Ikorel)] | 51 |
| NC(=O)c1cccnc1 [Nicotinamide (Niacinamide)] | -2.77 |
| Cc1cn(-c2cc(NC(=O)c3ccc(C)c(Nc4nccc(-c5cccnc5)n4)c3)cc(C(F)(F)F)c2)cn1 [Nilotinib (AMN-107)] | -7.37 |

Reference: article PMC7489219 (Molecular Brain, 2020)
